Source: ChEMBL document CHEMBL1146184, “Drug self-association modulates the cellular bioavailability of DNA minor groove-directed terbenzimidazoles” (J Med Chem, 2006)

Experiments:
Assay type in all cases: ADME, cell-based
RPMI 8402 [1] = assay: Uptake in human RPMI8402 cells at 1 uM after 0.5 hrs; details: rpmi 8402, 0.5 h
RPMI 8402 [2] = assay: Uptake in human RPMI8402 cells at 1 uM after 4 hrs; details: rpmi 8402, 4 h
RPMI 8402 [3] = assay: Uptake in human RPMI8402 cells at 1 uM after 1 hr; details: rpmi 8402, 1 h
RPMI 8402 [4] = assay: Uptake in human RPMI8402 cells at 1 uM after 2 hrs; details: rpmi 8402, 2 h

Drug uptake (RPMI 8402 [1]) [%]	Drug uptake (RPMI 8402 [2]) [%]	Drug uptake (RPMI 8402 [3]) [%]	Drug uptake (RPMI 8402 [4]) [%]	Compound
18	30	–	–	c1ccc(-c2ccc3[nH]c(-c4ccc5[nH]c(-c6ccc7cc[nH]c7c6)nc5c4)nc3c2)cc1
3	3	3	3	c1ccc(-c2ccc3[nH]c(-c4ccc5[nH]c(-c6ccc7[nH]cnc7c6)nc5c4)nc3c2)cc1
